The source of these data is article PMC4669759 (Cell Death & Disease, 2015).

The target of one data set is T1, BCL-2–BIM interactions (Homo sapiens, UniProt P10415).
T1 construct: expressed in transfected cells; host or cells: HeLa cells stably expressing a GAL4-luciferase reporter
The experiment in a line: Mammalian two-hybrid assay, BCL-2–BIM, HeLa cells. It counts as cell-based. The following applies: 24 h, luciferase two-hybrid. As for the experimental part: (a) H929 cells were treated with increasing concentrations of A-1210477 for 4 h. […] All data represent the mean of triplicate experiments, with error bars indicating the S.D. (b) Quantitative measurement of protein–protein interactions using a luciferase-based mammalian two-hybrid assay. […] All data represent the means of triplicate experiments, with error bars indicating the S.Ds.
HeLa cells stably expressing a GAL4-luciferase reporter were seeded into 10 cm dishes at 5 × 10^5 cells per plate. In all, 24 μg of a plasmid expressing both the ‘bait' and ‘prey' fusion proteins (GAL4DBD-BIM and VP16AD-BCL-2, GAL4DBD-BCL-XL and VP16AD- BCL-XS, or GAL4DBD-MCL-1 and VP16AD-NOXA, respectively) were mixed with 1.5 ml OptiMEM (Invitrogen). Separately, 24 μl Lipofectamine 2000 (Invitrogen) were mixed with 1.5 ml OptiMEM. Both solutions were incubated for 5 min (RT) and then mixed together for 20 min. Three milliliters of the mixture was added to cells in 12 ml culture medium lacking antibiotics, incubated at 37 °C for 24 h, and then transferred to 96-well plates at 20 000 cells per well. Compounds were added in half-log dilutions, starting from 1 μM and ending at 0.0001 μM for 24 h, and luciferase activity was assessed using ONE-Glo reagent (Promega). All data were plotted as the percentage of complex remaining relative to untreated controls.

On the set-up of data set [1]: method as in PMID 25679114. The settings on record: cited from earlier work.
The subject of another data set is OPM-2 cells. Nature of the data set: Navitoclax / A-1210477 combination cell viability, OPM-2 cells. In kind it is cell-based. The following applies: OPM-2, 48 h. The protocol: (§1) Figure 6 A-1210477 synergizes with navitoclax to kill hematological and solid tumor cell lines. BxPC-3, EJ-1, H23, and OPM-2 cells were treated with increasing concentrations of navitoclax in the presence or absence of increasing concentrations of A-1210477 for 48 h before assessing cell viability. All data points represent the means of triplicate experiments, with error bars indicating the S.E.M. TEXT PRINTED IN THE PICTURE: A-1210477 + navitoclax: Bliss sum (BxPC-3): 716; Bliss sum (EJ-1): 464; Bliss sum (H23): 76; Bliss sum (OPM-2): 946 DOUBTS OF THE COPYIST ABOUT THIS PICTURE: The Bliss sums apply to the combination of A-1210477 and navitoclax. The picture prints the two names separately (legend heading and axis title), not as one joined label.
(§2) Adherent cell lines were seeded at 50 000 cells per well in 96-well plates and treated for 48 h with compounds diluted in half-log steps starting at 30 μM and ending at 0.001 μM. Multiple myeloma cell lines were seeded at 15 000–20 000 cells per well and treated similarly. Effects on proliferation and viability were determined using CellTiter-Glo reagent from Promega (Madison, WI, USA) according to the manufacturer's instructions. IC50 values were determined by non-linear regression analysis of the concentration response data.

A further data set deals with H23 cells. Nature of the data set: Navitoclax / A-1210477 combination cell viability, H23 cells. It counts as cell-based, human. The following applies: H23, 48 h. The protocol:
as §1, §2

T1 sequence (P10415 whole entry, the tested form may be a part): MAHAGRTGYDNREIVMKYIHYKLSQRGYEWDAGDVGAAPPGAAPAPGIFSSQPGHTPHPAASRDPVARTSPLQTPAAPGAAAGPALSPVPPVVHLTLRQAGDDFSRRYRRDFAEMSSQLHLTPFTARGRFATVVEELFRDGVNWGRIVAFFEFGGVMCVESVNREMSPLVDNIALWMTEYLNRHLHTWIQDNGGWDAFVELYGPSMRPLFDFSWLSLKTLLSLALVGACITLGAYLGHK

On to `Cc1nn(C)c(COc2ccc(N3CCN(S(=O)(=O)N(C)C)CC3)cc2)c1-c1cccc2c(CCCOc3cccc4ccccc34)c(C(=O)O)n(CCN3CCOCC3)c12` [A-1210477], for which, on BCL-2–BIM interactions, the “effect on BCL-2–BIM interactions” value is reported as “no effect”. In addition, the human protein binding in data set [1] is reported as above 99%. The potentiation of navitoclax entry in the data set with OPM-2 cells and in the data set with H23 cells was “substantially shifted the dose–response curve of navitoclax” in each case.
